# Test results: patent US7727980B2, “Tricyclic androgen receptor modulator compounds and methods” (priority 2001, dated 2010)
# Where two headings read alike, the source gives them in different places.
# Key:
# human AR [1] = biological target: T1, human AR (Homo sapiens, UniProt P10275); test: Co-transfection assay, AR agonist activity, CV-1 cells; type: cell-based; parameters: expressed in transfected cells; host or cells: CV-1 cells (African green monkey kidney fibroblasts), transient transfection with pRShAR; conditions: for AR Agonist CV-1 Cells Efficacy (%): percent maximal response relative to reference agonist DHT
# T1 sequence (P10275 1-920): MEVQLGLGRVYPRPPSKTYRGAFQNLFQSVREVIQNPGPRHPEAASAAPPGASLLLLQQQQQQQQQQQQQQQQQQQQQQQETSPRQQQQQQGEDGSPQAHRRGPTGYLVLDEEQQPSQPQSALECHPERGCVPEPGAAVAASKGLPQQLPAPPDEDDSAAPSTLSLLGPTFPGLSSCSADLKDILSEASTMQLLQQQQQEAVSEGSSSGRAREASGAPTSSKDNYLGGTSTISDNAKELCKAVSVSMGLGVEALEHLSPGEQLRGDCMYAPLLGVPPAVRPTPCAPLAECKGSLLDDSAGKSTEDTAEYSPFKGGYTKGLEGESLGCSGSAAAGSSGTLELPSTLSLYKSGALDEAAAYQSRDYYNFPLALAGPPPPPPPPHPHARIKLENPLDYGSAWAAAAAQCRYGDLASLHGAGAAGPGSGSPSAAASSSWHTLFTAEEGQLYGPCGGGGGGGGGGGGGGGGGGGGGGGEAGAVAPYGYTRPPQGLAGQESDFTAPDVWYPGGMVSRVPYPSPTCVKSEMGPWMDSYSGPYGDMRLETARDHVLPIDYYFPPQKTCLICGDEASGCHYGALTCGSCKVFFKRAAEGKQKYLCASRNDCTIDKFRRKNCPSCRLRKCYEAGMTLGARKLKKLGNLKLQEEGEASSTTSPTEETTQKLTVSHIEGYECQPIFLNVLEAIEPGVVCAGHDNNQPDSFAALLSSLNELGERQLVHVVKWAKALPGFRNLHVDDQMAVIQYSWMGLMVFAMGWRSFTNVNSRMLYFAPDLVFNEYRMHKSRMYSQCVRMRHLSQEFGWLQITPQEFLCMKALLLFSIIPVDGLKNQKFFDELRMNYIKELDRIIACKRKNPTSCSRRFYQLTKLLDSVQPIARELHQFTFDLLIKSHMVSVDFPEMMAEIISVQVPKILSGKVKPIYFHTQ
# Excerpt: (§1) The co-transfection assay provides a method for identifying functional agonists and partial agonists which mimic, or antagonists which inhibit, the effect of native hormones and quantifying their activity for responsive IR proteins. In this regard, the co-transfection assay mimics an in vivo system in the laboratory. Importantly, activity in the co-transfection assay correlates very well with known in vivo activity, such that the co-transfection assay functions as a qualitative and quantitative predictor of a tested compounds in vivo pharmacology. See, e.g., T. Berger et al. 41 J. Steroid Biochem. Molec.
# (§2) In the co-transfection assay, a cloned cDNA for an IR (e.g., human PR, AR or GR) under the control of a constitutive promoter (e.g., the SV 40 promoter) is introduced by transfection (a procedure to induce cells to take up foreign genes) into a background cell substantially devoid of endogenous IRs. This introduced gene directs the recipient cells to make the IR protein of interest. A second gene is also introduced (co-transfected) into the same cells in conjunction with the IR gene. This second gene, comprising the cDNA for a reporter protein, such as firefly luciferase (LUC), controlled by an appropriate hormone responsive promoter containing a hormone response element (HRE). This reporter plasmid functions as a reporter for the transcription-modulating activity of the target IR. Thus, the reporter acts as a surrogate for the products (mRNA then protein) normally expressed by a gene under control of the target receptor and its native hormone.
# (§3) The co-transfection assay can detect small molecule agonists or antagonists of target IRs. Exposing the transfected cells to an agonist ligand compound increases reporter activity in the transfected cells. This activity can be conveniently measured, e.g., by increasing luciferase production, which reflects compound-dependent, IR-mediated increases in reporter transcription. […] To detect antagonists, the co-transfection assay is carried out in the presence of a constant concentration of an agonist to the target IR (e.g., progesterone for PR) known to induce a defined reporter signal. Increasing concentrations of a suspected antagonist will decrease the reporter signal (e.g., luciferase production). The co-transfection assay is therefore useful to detect both agonists and antagonists of specific IRs. Furthermore, it determines not only whether a compound interacts with a particular IR, but whether this interaction mimics (agonizes) or blocks (antagonizes) the effects of the native regulatory molecules on target gene expression, as well as the specificity and strength of this interaction.
# (§4) CV-1 cells (African green monkey kidney fibroblasts) were cultured in the presence of Dulbecco's Modified Eagle Medium (DMEM) supplemented with 10% charcoal resin-stripped fetal bovine serum then transferred to 96-well microtiter plates one day prior to transfection.
# (§5) The reporter plasmid, MTV-LUC, contains the cDNA for firefly luciferase (LUC) under control of the mouse mammary tumor virus (MTV) long terminal repeat, a conditional promoter containing an androgen response element. See e.g., Berger et al. supra. In addition, pRS-β-Gal, coding for constitutive expression of E. coli β-galactosidase (β-Gal), was included as an internal control for evaluation of transfection efficiency and compound toxicity.
# (§6) Six hours after transfection, media was removed and the cells were washed with phosphate-buffered saline (PBS). […] Three to four replicates were used for each sample. Transfections and subsequent procedures were performed on a Biomek 1000 automated laboratory work station.
# (§7) After 40 hours, the cells were washed with PBS, lysed with a Triton X-100-based buffer and assayed for LUC and β-Gal activities using a luminometer or spectrophotometer, respectively. For each replicate, the normalized response (NR) was calculated as: LUC response/β-Gal rate • where β-Gal rate=β-Gal·1×10^−5/β-Gal incubation time.
# human AR [2] = biological target: T1, human AR; test: Co-transfection assay, AR antagonist activity in presence of DHT, CV-1 cells; type: cell-based; parameters: expressed in transfected cells; host or cells: CV-1 cells (African green monkey kidney fibroblasts), transient transfection with pRShAR; conditions: CV-1 cells; for IC50: antagonist potency or IC50, DHT at its EC50 concentration; for AR Antagonist CV-1 Cells Efficacy (%): percent maximal inhibition, DHT at its EC50 concentration
# Excerpt: as §1, §2, §3, §4, §5, §6, §7
# human AR [3] = biological target: T1, human AR; test: AR whole cell competitive binding assay (3H-DHT), transfected COS-1 cells; parameters: expressed in transfected cells; transient transfection with pRShAR; conditions: COS-1 cells, 1 nM 3H-DHT, Cheng-Prusoff from IC50
# Method: AR Binding: For the whole cell binding assay, COS-1 cells in 96-well microtiter plates containing DMEM-10% FBS were transfected as described above with the following plasmid DNA: pRShAR (2 ng/well), pRS-β-Gal (50 ng/well) and pGEM (48 ng/well). Six hours after transfection, media was removed, the cells were washed with PBS and fresh media was added. The next day, the media was changed to DMEM-serum free to remove any endogenous ligand that might be complexed with the receptor in the cells.
# Three replicates were used for each sample. […] The remaining media was removed, the cells were washed three times with PBS to remove unbound ligand and cells were lysed with a Triton X-100-based buffer.
# For the saturation analyses, the difference between the total binding and the nonspecific binding, normalized by the β-Gal rate, was defined as specific binding. […] The Ki values were determined by application of the Cheng-Prusoff equation to the IC50 values, where: […]
# After correcting for non-specific binding, IC50 values were determined. […] The IC50 value was determined graphically from a log-logit plot of the data. The Ki values were determined by application of the Cheng-Prusoff equation to the IC50 values, the labeled ligand concentration and the Kd of the labeled ligand.
# [4] = agonist potency or EC50, read-out: AR Agonist CV-1 Cells Potency
# [5] = read-out: AR Antagonist CV-1 Cells Potency
# [6] = AR Agonist CV-1 Cells Potency (nM), agonist potency or EC50
# [7] = AR Antagonist CV-1 Cells Potency (nM)
molecule,measurement,setting,value
"5-Isopropyl-6-methyl-4-trifluoromethyl-7H-pyrrolo[3,2-f]quinolin-2(1H)-one [Compound 113]",EC50,human AR [1]; [4],> 10000 nM
same,AR Agonist CV-1 Cells Efficacy (%),human AR [1],"na (na = not active (i.e. efficacy of <20 and potency of >10,000))"
same,IC50,human AR [2]; [5],316 nM
same,AR Antagonist CV-1 Cells Efficacy (%),human AR [2],65%
same,Ki,human AR [3]; read-out: AR Binding Ki,529 nM
"6-(1-Methoxyethyl)-5-methyl-7-(2,2,2-trifluoroethyl)-4-trifluoromethyl-7H-pyrrolo[3,2-f]quinolin-2(1H)-one [Compound 172]",EC50,human AR [1]; [4],19 nM
same,AR Agonist CV-1 Cells Efficacy (%),human AR [1],89%
same,IC50,human AR [2]; [5],> 10000 nM
same,AR Antagonist CV-1 Cells Efficacy (%),human AR [2],"na (na = not active (i.e. efficacy of <20 and potency of >10,000))"
same,Ki,human AR [3]; read-out: AR Binding Ki,12 nM
"6-Ethyl-5-methyl-7-(2,2,2-trifluoroethyl)-7H-pyrrolo[3,2-f]quinolin-2(1H)-one [Compound 151]",EC50,human AR [1]; [4],120 nM
same,AR Agonist CV-1 Cells Efficacy (%),human AR [1],36%
same,IC50,human AR [2]; [5],5.9 nM
same,AR Antagonist CV-1 Cells Efficacy (%),human AR [2],57%
same,Ki,human AR [3]; read-out: AR Binding Ki,48 nM
"6-Methyl-4-trifluoromethyl-7H-pyrrolo[3,2-f]quinolin-2(1H)-one [Compound 112]",EC50,human AR [1]; [4],> 10000 nM
same,AR Agonist CV-1 Cells Efficacy (%),human AR [1],"na (na = not active (i.e. efficacy of <20 and potency of >10,000))"
same,IC50,human AR [2]; [5],10 nM
same,AR Antagonist CV-1 Cells Efficacy (%),human AR [2],75%
same,Ki,human AR [3]; read-out: AR Binding Ki,119 nM
"6-Methyl-7-(2,2,2-trifluoroethyl)-4-trifluoromethyl-7H-pyrrolo[3,2-f]quinolin-2(1H)-one [Compound 152]",EC50,human AR [1]; [4],4.9 nM
same,AR Agonist CV-1 Cells Efficacy (%),human AR [1],74%
same,IC50,human AR [2]; [5],> 10000 nM
same,AR Antagonist CV-1 Cells Efficacy (%),human AR [2],"na (na = not active (i.e. efficacy of <20 and potency of >10,000))"
same,Ki,human AR [3]; read-out: AR Binding Ki,67 nM
"O=c1cc(C(F)(F)F)c2c3c(ccc2[nH]1)N(CC(F)(F)F)C1CCCC31 (racemic) [Compound 119, (±)-4c,5,6,7,7a(cis),8-Hexahydro-8-(2,2,2-trifluoroethyl)-4-trifluoromethylcyclopentano-[g]pyrrolo[3,2-f]quinolin-2(1H)-one]",EC50,human AR [1]; [6],2.5 nM
same,AR Agonist CV-1 Cells Efficacy (%),human AR [1],94%
same,IC50,human AR [2]; [7],> 10000 nM
same,AR Antagonist CV-1 Cells Efficacy (%),human AR [2],"na (na = not active (i.e. efficacy of <20 and potency of >10,000))"
same,Ki,human AR [3]; AR Binding Ki (nM),2.6 nM
"O=c1cc(C(F)(F)F)c2cc3c(cc2[nH]1)C1CCCC1N3CC(F)(F)F (racemic) [Compound 120, (±)-6,6a,7,8,9,9a(cis)-Hexahydro-6-(2,2,2-trifluoroethyl)-4-trifluoromethylcyclopentano-[i]pyrrolo[2,3-g]quinolin-2(1H)-one]",EC50,human AR [1]; [6],4.5 nM
same,AR Agonist CV-1 Cells Efficacy (%),human AR [1],117%
same,IC50,human AR [2]; [7],> 10000 nM
same,AR Antagonist CV-1 Cells Efficacy (%),human AR [2],"na (na = not active (i.e. efficacy of <20 and potency of >10,000))"
same,Ki,human AR [3]; AR Binding Ki (nM),12 nM
"CCN1c2ccc3[nH]c(=O)cc(C(F)(F)F)c3c2C2CCCC21 (racemic) [Compound 121, (±)-4c,5,6,7,7a(cis),8-Hexahydro-8-ethyl-4-trifluoromethylcyclopentano-[g]pyrrolo[3,2-f]quinolin-2(1H)-one]",EC50,human AR [1]; [6],43 nM
same,AR Agonist CV-1 Cells Efficacy (%),human AR [1],97%
same,IC50,human AR [2]; [7],> 10000 nM
same,AR Antagonist CV-1 Cells Efficacy (%),human AR [2],"na (na = not active (i.e. efficacy of <20 and potency of >10,000))"
same,Ki,human AR [3]; AR Binding Ki (nM),7.6 nM
"CCN1c2cc3c(C(F)(F)F)cc(=O)[nH]c3cc2C2CCCC21 (racemic) [Compound 122, (±)-6,6a 7,8,9,9a(cis)-Hexahydro-6-ethyl-4-trifluoromethylcyclopentano-[i]pyrrolo[2,3-g]quinolin-2(1H)-one]",EC50,human AR [1]; [6],34 nM
same,AR Agonist CV-1 Cells Efficacy (%),human AR [1],59%
same,IC50,human AR [2]; [7],> 10000 nM
same,AR Antagonist CV-1 Cells Efficacy (%),human AR [2],"na (na = not active (i.e. efficacy of <20 and potency of >10,000))"
same,Ki,human AR [3]; AR Binding Ki (nM),21 nM
"CC1c2c(ccc3[nH]c(=O)cc(C(F)(F)F)c23)N(CC(F)(F)F)C1C (racemic) [Compound 123, (±)-5,6-Dihydro-5,6-cis-dimethyl-7-(2,2,2-trifluoroethyl)-4-trifluoromethyl-7H-pyrrolo[3,2-f]quinolin-2(1H)-one]",EC50,human AR [1]; [6],1.4 nM
same,AR Agonist CV-1 Cells Efficacy (%),human AR [1],104%
same,IC50,human AR [2]; [7],> 10000 nM
same,AR Antagonist CV-1 Cells Efficacy (%),human AR [2],"na (na = not active (i.e. efficacy of <20 and potency of >10,000))"
same,Ki,human AR [3]; AR Binding Ki (nM),14 nM
"CCCN1c2ccc3[nH]c(=O)cc(C(F)(F)F)c3c2C2CCCC21 (racemic) [Compound 125, (±)-4c,5,6,7,7a(cis),8-Hexahydro-8-propyl-4-trifluoromethylcyclopentano-[g]pyrrolo-[3,2-f]quinolin-2(1H)-one]",EC50,human AR [1]; [6],38 nM
same,AR Agonist CV-1 Cells Efficacy (%),human AR [1],121%
same,IC50,human AR [2]; [7],> 10000 nM
same,AR Antagonist CV-1 Cells Efficacy (%),human AR [2],"na (na = not active (i.e. efficacy of <20 and potency of >10,000))"
same,Ki,human AR [3]; AR Binding Ki (nM),1.3 nM
